The source of these data is the supplement of paper PMC12490022.

± gives the uncertainty stated by the source.

For this series, the system named is ozone. Description: apparent second-order rate constant for reaction with ozone (kapp,O3) (M-1 s-1); higher = faster oxidation by ozone. The note with it: pH 7; temperature: 22 C; OH radical scavenger: tBuOH 80 mM; phosphate 4 mM. A digest of the protocol:
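Apparent second-order rate constants for reaction with ozone came from multicompound competition kinetics, averaged (± SD) over qualifying competitors. Target/competitor mixtures (10 μg L–1 each before ozone addition) in 4 mM phosphate buffer, pH 7, with 80 mM tert-butanol were dosed with ozone solution (compound:O3 molar ratios 0.0025–100) at 22 ± 1 °C, in triplicate on three days. HPLC-HRMS/MS peak-area abatement (10–90%) was regressed against competitors of known constant, requiring ≥10 points, R2 >0.9 and slope 0.1–10.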

As to `CNC(=C[N+](=O)[O-])NCCSCc1ccc(CN(C)C)o1` [Ranitidine], the “apparent second-order rate constant” value was found to be 6.4e+06 ± 500000. Under `CC12CCC(=O)C=C1CCC1C2C(O)CC2(C)C1CCC2(O)C(=O)CO` (configuration not stated) [Hydrocortisone] stands 420 ± 25.

For the compound `CC(=O)Nc1ccc(S(=O)(=O)Nc2ccccn2)cc1` [N4-Acetylsulfapyridine], the “apparent second-order rate constant” value was determined as 947 ± 280. Take `CC(Cc1ccc(C(C)C(=O)O)cc1)C(=O)O` (configuration not stated) [Carboxyibuprofen]: the “apparent second-order rate constant” value came to 11.8 ± 1.3.

As for `CC(CN(C)C)CN1c2ccccc2CCc2ccccc21` (configuration not stated) [Trimipramine], the “apparent second-order rate constant” value amounted to 2e+06 ± 400000. Under `CN(C)CC(c1ccc(O)cc1)C1(O)CCCCC1` (configuration not stated) [O-Desmethylvenlafaxine] stands 2.09e+06 ± 170000; under `CCC(C(N)=O)N1CCCC1=O` (configuration not stated) [Levetiracetam], 0.81 ± 0.09; under `O=C(O)CCC(=O)O` [Succinic acid], less than 0.401. Under `Clc1cccc(N2CCNCC2)c1` [1-(3-Chlorophenyl)piperazine] stands 2.1e+06 ± 400000. Take `CC[N+]1([O-])CCCC1CNC(=O)c1cc(S(N)(=O)=O)ccc1OC` (configuration not stated) [Sulpiride-N-oxide]: the “apparent second-order rate constant” value came to 41 ± 5. In the case of `CCC(CC)OC1C=C(C(=O)O)CC(N)C1NC(C)=O` (configuration not stated) [Oseltamivir acid], the “apparent second-order rate constant” value amounted to 87000 ± 7700.

Take `CN1CCN2c3ccccc3Cc3ccccc3C2C1` (configuration not stated) [Mianserin]: the “apparent second-order rate constant” value was determined as 1.94e+06 ± 100000. Under `O=C1Nc2c(CO)ccnc2N(C2CC2)c2ncccc21` [12-Hydroxynevirapine] stands 392 ± 21; under `CCCc1nc2c(C)cc(-c3nc4ccccc4n3C)cc2n1Cc1ccc(-c2ccccc2C(=O)OC2OC(C(=O)O)C(O)C(O)C2O)cc1` (configuration not stated) [Telmisartan-O-acyl-glucuronide], 111 ± 5; under `CCN(CC)CC(=O)Nc1c(C)cccc1C` [Lidocaine], 185000 ± 17000.

`COc1ccc([C@@H]2Sc3ccccc3N(CCN(C)C)C(=O)[C@@H]2O)cc1` [Desacetyldiltiazem]: the “apparent second-order rate constant” value turned out to be 668000 ± 57000. Under `O=C(O)COCCN1CCN(C(c2ccccc2)c2ccc(Cl)cc2)CC1` (configuration not stated) [Cetirizine] stands 359000 ± 31000. The figure for `CCCCc1ncc(C=C(Cc2cccs2)C(=O)O)n1Cc1ccc(C(=O)O)cc1` [Eprosartan] is 1.57e+06 ± 140000. In the case of `CC[N+]([O-])(CC)CC(=O)Nc1c(C)cccc1C` [Lidocaine-N-oxide], the “apparent second-order rate constant” value stood at 10.9 ± 1.2. As for `O=C(O)C(c1ccccc1Cl)N1CCc2sccc2C1` (configuration not stated) [Clopidogrel carboxylic acid], the “apparent second-order rate constant” value is 175000 ± 14000. For the compound `COc1ccc2c3c1OC1C(O)C=CC4C(C2)N(C)CCC341` (configuration not stated) [Codeine], the “apparent second-order rate constant” value turned out to be 1.03e+06 ± 88000. Consider `Nc1ccn(C2OC(CO)C(O)C2(F)F)c(=O)n1` (configuration not stated) [Gemcitabine], for which the “apparent second-order rate constant” value turned out to be 390 ± 30.

On to `CNCCCC1(c2ccc(F)cc2)OCc2cc(C#N)ccc21` (configuration not stated) [N-Desmethylcitalopram], for which the “apparent second-order rate constant” value was found to be 532 ± 28.

As for `CC(C)c1nc(N(C)S(C)(=O)=O)nc(-c2ccc(F)cc2)c1C=CC(O)CC(O)CC(=O)O` (configuration not stated) [Rosuvastatin], the “apparent second-order rate constant” value came out at 3250 ± 260. Under `CC[C@H]1OC(=O)[C@H](C)[C@@H](O[C@H]2C[C@@](C)(OC)[C@@H](O)[C@H](C)O2)[C@H](C)[C@@H](O[C@@H]2O[C@H](C)C[C@H]([N+](C)(C)[O-])[C@H]2O)[C@](C)(OC)C[C@@H](C)C(=O)[C@H](C)[C@@H](O)[C@]1(C)O` [Clarithromycin-N-oxide] stands less than 0.401.

For `CC(C)NCC(O)COc1ccc(CC(N)=O)cc1` (configuration not stated) [Atenolol], the “apparent second-order rate constant” value turned out to be 1580 ± 72. Under `CC1(C)SC(CNC(=O)C(N)c2ccc(O)cc2)NC1C(=O)O` (configuration not stated) [Amoxicillin impurity E] stands 9e+06 ± 1.9e+06.

Consider `Cn1cnc2c1c(=O)[nH]c(=O)n2C` [Theobromine], for which the “apparent second-order rate constant” value is 1200 ± 65. Under `Nc1nc(=O)n(C2CSC(CO)O2)cc1F` (configuration not stated) [Emtricitabine] stands 79000 ± 70000; under `CCOC(=O)C1=CC(OC(CC)CC)C(NC(C)=O)C(N)C1` (configuration not stated) [Oseltamivir], 6130 ± 510. `CC=C1N(C)C(C)CC1(c1ccccc1)c1ccccc1` (configuration not stated) [2-Ethylidene-1,5-dimethyl-3,3-diphenylpyrrolidine (EDDP)]: the “apparent second-order rate constant” value is 99000 ± 18000.

In the case of `CCCc1nc2c(C)cc(-c3nc4ccccc4n3C)cc2n1Cc1ccc(-c2ccccc2C(=O)O)cc1` [Telmisartan], the “apparent second-order rate constant” value turned out to be 120 ± 6.1.
